Measurements: article PMC9787607, “A Novel Protocol for the Synthesis of 1,2,4-Oxadiazoles Active against Trypanosomatids and Drug-Resistant Leukemia Cell Lines” (Tropical Medicine and Infectious Disease, 2022)

How the values were obtained:
[1] = Cytotoxicity to LLC-MK2 host cells (MTT); format: cell-based; conditions: rhesus monkey, LLC-MK2 cells (kidney fibroblasts); for viability at 120 h, 50 µM: screening at 50 μM
Experimental: (§1) LLC-MK2 kidney fibroblasts (ATCC) and RAW 264.7 macrophages (ATCC) were cultivated in culture flasks in complete DMEM with 5% FBS at 37 °C in 5% CO2. The LLC-MK2 cell monolayer was detached by treatment with trypsin-EDTA 0.05% for 5 min at 37 °C. The RAW cell monolayer was detached mechanically. In both cases, the cells were centrifuged at 480× g for 6 min and resuspended in complete DMEM with 5% FBS, and the cell density was determined by counting with trypan-blue dye exclusion on Neubauer chambers before use.
(§2) LLC-MK2 cells were seeded in a 96-well microplate (1.0 × 10^4 cells per well) in complete DMEM with 5% FBS (120 µL per well). After incubation for 24 h at 37 °C in 5% CO2, the medium was renewed, and compounds were added at a range of concentrations in triplicate (50 μM or 100–1 μM). Untreated cells and cells treated with DMEM and 10% DMSO were used as negative and positive controls, respectively. Vehicle control containing DMEM and 0.3% DMSO was maintained for comparison. After incubation for 120 h at 37 °C in 5% CO2, the medium was renewed, and MTT salt solution in PBS was added (3.0 mM, 20 µL per well). After incubation for 2 h at 37 °C in 5% CO2, the supernatant was removed, and MTT formazan was dissolved in DMSO (150 µL per well). Absorbance was measured using a microplate reader at 570 nm.
(§3) The percent cell or parasite viability was calculated by the formula: % viability = [(A − P)/(N − P)] × 100, A = absorbance of specific well, P = positive control, N = negative control. Determination of half-maximal effective concentrations (EC50), calculated by logarithmic regression, and significance analysis (p < 0.05), using ANOVA and Dunnett’s test, by GraphPad Prism 7.0 software. The results are expressed as the mean and standard deviation (SD) of three independent experiments.

[2] = system: LLC-MK2 cells; test: Cytotoxicity to LLC-MK2 host cells (MTT); format: cell-based; conditions: Macaca mulatta, LLC-MK2; 120 h, MTT
Experimental: as §1, §2, §3

[3] = system: drug-sensitive and drug-resistant chronic myeloid leukemia cell lines (K562, Lucena-1, FEPS); test: MTT cytotoxicity to CML cell lines, statements over all lines; format: cell-based; conditions: Homo sapiens, K562-Lucena 1, statement over K562, Lucena-1 and FEPS; read-out: EC50 against CML cell lines
Experimental: The CML cell lines K562, Lucena-1 (K562/VCR), and FEPS (K562/DNR) were cultured in RPMI-1640 medium supplemented with 25 mM HEPES and 2 g L^−1 sodium bicarbonate adjusted to pH 7.4 with NaOH, 100 U penicillin and […] streptomycin. All media were supplemented with 10% FBS. Dr. Vivian M. Rumjanek (Instituto de Bioquímica Médica, UFRJ, Brazil) kindly donated Lucena-1 and FEPS cells. Briefly, K562 cells were exposed to increasing concentrations of the chemotherapeutic drugs vincristine sulfate (VCR) and daunorubicin hydrochloride (DNR) (both from Sigma-Aldrich), as described previously. Lucena-1 (K562/VCR) and FEPS (K562/DNR) cells were cultured in the presence of either 60 nM VCR or 500 nM DNR to maintain the MDR phenotypes. For subcultures, cells were harvested every three days followed by washing with cold FBS, and a final concentration of 2 × 10^4 cells mL^−1 was maintained at 37 °C in 5% CO2.
Cell viability was determined by the 3-(4,5-dimethylthiazol-2-yl)-2,5-diphenyltetrazolium (MTT) colorimetric assay. CML cells (2 × 10^4 cells·mL^−1) were incubated for 72 h at 37 °C, followed by treatment with compounds at a range of concentrations (100–1 μM). Negative controls were prepared with 0.5% DMSO. An MTT salt solution was added to each well to a final concentration of 0.5 g·L^−1, and plates were incubated at 37 °C in 5% CO2 for 3 h. After centrifugation, 200 μL DMSO was added to dissolve the dark-blue formazan crystals formed by MTT reduction. Absorbance was measured on a microplate reader at 570 nm, which is directly proportional to formazan contents and indicative of living cells.

[4] = Cytotoxicity to BALB/c mouse total splenocytes (MTT); format: cell-based; conditions: male; for viability at 48 h, 100 µM / viability at 48 h, 0.4 µM / viability at 48 h, 1 µM / viability at 48 h, 2.6 µM / viability at 48 h, 6.4 µM / viability at 48 h, 16 µM / viability at 48 h, 40 µM: total splenocytes (primary); for EC50 at 48 h: primary total splenocytes, MTT, read-out: EC50 murine splenocytes
Experimental: BALB/c mouse total splenocytes were harvested from male mice between 6–8 weeks old. After euthanasia, the spleens were removed and macerated in DMEM. After centrifugation, the cells were treated with hemolytic ACK buffer at 37 °C for 5 min. […] After incubation for 48 h at 37 °C in 5% CO2, cell viability was determined after the addition of 20 µL per well of a solution containing MTT salt (3.0 mM) and phenazine metasulphate (0.72 mM). After further incubation for 1 h at 37 °C, the medium was removed, and DMSO was added to dissolve the dark-blue formazan crystals formed by MTT reduction. Absorbance was measured on a microplate reader at 570 nm.
as §3

[5] = system: L. amazonensis promastigotes; test: Anti-L. amazonensis promastigote assessment (MTT); format: cell-based; conditions: Leishmania amazonensis; 48 h, MTT; read-out: EC50 L. amazonensis promastigotes
Experimental: Promastigotes of L. amazonensis (MHOM/BR/75/Josefa) were cultured in Schneider’s insect medium (SIM) with 10% FBS. Parasites were harvested at the stationary growth phase for assessment against promastigotes and 24 h after cultures reached the stationary growth phase for infection assays. […]. Complete SIM media and amphotericin B (AmB) at 10 µM were used as negative and positive controls, respectively. A vehicle control containing SIM with 10% SFB media and 0.3% DMSO was maintained for comparison. The final volume of the experiment was 100 µL. After incubation for 48 h at 27 °C, MTT salt solution in PBS was added (3.0 mM, 20 µL per well). After incubation for 2 h at 27 °C, the MTT formazan was dissolved by adding 120 µL of solubilizing buffer (50% isopropanol, 40% acetate buffer pH 5.4, 10% Triton-X). Absorbance was measured using a microplate reader at 570 nm.
as §3

[6] = system: FEPS (K562/DNR); test: MTT cytotoxicity to MDR CML cell line FEPS; format: cell-based, human; conditions: for RR (relative resistance) FEPS: (EC50 MDR cells)/(EC50 parental cells), FEPS/K562; for EC50: Homo sapiens, K562, 72 h, MTT
Procedure, shortened: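 K562 and its MDR sublines Lucena-1 (maintained in 60 nM VCR) and FEPS (500 nM DNR) seeded at 2 × 10^4 cells/mL in RPMI-1640 with 10% FBS, treated with compounds at 1–100 μM (0.5% DMSO controls). MTT 0.5 g/L for 3 h, A570 read; EC50 by logarithmic regression, three independent experiments.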

[7] = 100 μM, 48 h, compared to the untreated control (Table S1)
[8] = Table S2 dose-dependent, 100 µM

`COc1cc(/C=C/c2nc(-c3ccccc3)no2)cc(OC)c1OC` [Compound 12, (E)-3-phenyl-5-[2-(3,4,5-trimethoxyphenyl)vinyl]-1,2,4-oxadiazole] gave a viability at 120 h, 50 µM [1] of 88.2 ± 5.2%, an EC50 [2] greater than 100 µM and an EC50 [3] of less than 20 µM. The viability at 48 h, 100 µM [4, 7] was 72.1 ± 6.5%, the EC50 [5] was 26 ± 3 µM and the “RR (relative resistance) FEPS” value [6] was 1.42. For the same compound, the EC50 [6] was 25.5 ± 4.9 µM.
`C(=C\c1nc(-c2ccccc2)no1)/c1cccnc1` [Compound 15, (E)-3-phenyl-5-[2-pyridyn-3-yl-vinyl]-1,2,4-oxadiazole] showed an EC50 [2] greater than 100 µM, an EC50 [3] of less than 20 µM and an EC50 at 48 h ([4]; 48 h) of 52.2 ± 4.51 µM. The viability at 48 h, 0.4 µM ([4]; Table S2 dose-dependent) was 94.5 ± 9.1%, the viability at 48 h, 1 µM ([4]; Table S2 dose-dependent) was 92.7 ± 4.1% and the viability at 48 h, 2.6 µM ([4]; Table S2 dose-dependent) was 86.3 ± 7.5%. For the same compound, the viability at 48 h, 6.4 µM ([4]; Table S2 dose-dependent) was 90.2 ± 10.7%, the viability at 48 h, 16 µM ([4]; Table S2 dose-dependent) was 77.7 ± 4.8% and the viability at 48 h, 40 µM ([4]; Table S2 dose-dependent) was 63.1 ± 5.8%. For the same compound, the viability at 48 h, 100 µM [4, 8] was 29.5 ± 1.6%, the EC50 [5] was 53.6 ± 2.2 µM and the “RR (relative resistance) FEPS” value [6] was 0.68. For the same compound, the EC50 [6] was 18.7 ± 3.9 µM.
Compound `COc1cc(/C=C/c2nc(-c3cc(OC)c(OC)c(OC)c3)no2)cc(OC)c1OC` [Compound 23, (E)-3-(3,4,5-trimethoxyphenyl)-5-[2-(3,4,5-trimethoxyphenyl)-vinyl]-1,2,4-oxadiazole] has a viability at 120 h, 1 µM ([1]; host cells at 1.0 μM, read-out: host cell viability) of 93 ± 4.4%, a viability at 120 h, 50 µM [1] of 64.1 ± 4.4% and an EC50 [2] of 78 ± 4.7 µM. For the same compound, the EC50 at 48 h ([4]; 48 h) was 33.3 ± 2.83 µM, the viability at 48 h, 0.4 µM ([4]; Table S2 dose-dependent) was 97.3 ± 3.3% and the viability at 48 h, 1 µM ([4]; Table S2 dose-dependent) was 94.9 ± 4%. It also gave a viability at 48 h, 2.6 µM ([4]; Table S2 dose-dependent) of 95 ± 4.4%, a viability at 48 h, 6.4 µM ([4]; Table S2 dose-dependent) of 84.6 ± 6.7% and a viability at 48 h, 16 µM ([4]; Table S2 dose-dependent) of 69.5 ± 6.4%. It also gave a viability at 48 h, 40 µM ([4]; Table S2 dose-dependent) of 43.4 ± 4.2%, a viability at 48 h, 100 µM [4, 8] of 14.1 ± 3.5% and an EC50 [5] of 12.2 ± 0.7 µM. The “RR (relative resistance) FEPS” value [6] was 0.42 and the EC50 [6] was 5.5 ± 0.6 µM.
`COc1cc(-c2noc(/C=C/c3ccc4c(c3)OCO4)n2)cc(OC)c1OC` [Compound 24, (E)-3-(3,4,5-trimethoxyphenyl)-5-[2-(3,4-methylenedioxy-phenyl)vinyl]-1,2,4-oxadiazole] gave a viability at 120 h, 50 µM [1] of 55.9 ± 9.3%, an EC50 [2] of 53.4 ± 2.6 µM and an EC50 [3] of less than 20 µM. For the same compound, the viability at 48 h, 100 µM [4, 7] was 72.8 ± 4.2%, the EC50 [5] was 10 ± 2.7 µM and the “RR (relative resistance) FEPS” value [6] was 0.15. It also gave an EC50 [6] of 8.9 ± 0.3 µM.
